Source: patent publication US5663148A, “Anaphylatoxin receptor ligands containing lipophilic residues” (Abbott Laboratories, priority 1994, dated 1997)
*1 amine or outer side, *2 acyl side, *3 side chain or, on linkers, in order; H or OH if unused. Where a SMILES comes first, the peptide text is derived from it. [ ]: non-standard residue; d: D form. The star is where a group is joined. ξ: configuration not given here. Gly(N(CH2)2(3-indolyl)) = O=C(O)CNCCc1c[nH]c2ccccc12; X5 = O=C([C@H](CC1CCCCC1)N(Cc1ccccc1)[*:1])[*:2]; d(hhPhe) = N[C@H](CCCc1ccccc1)C(=O)O; X2 = O=C(C(CCOc1ccccc1)N[*:1])[*:2]; Cha = N[C@@H](CC1CCCCC1)C(=O)O; ξhhPhe = NC(CCCc1ccccc1)C(=O)O; X10 = O=C(Cc1c[nH]c2ccccc12)*; 3Amb = NCc1cccc(C(=O)O)c1; PhAc = O=C(Cc1ccccc1)*; Ahp = NCCCCCCC(=O)O; Ahx = NCCCCCC(=O)O

Molecular target: T1, C5a receptor (Homo sapiens, UniProt P21730)
T1 construct: from tissue; host or cells: polymorphonuclear leukocyte (PMNL) membrane fragments
T1 sequence (P21730 1-350): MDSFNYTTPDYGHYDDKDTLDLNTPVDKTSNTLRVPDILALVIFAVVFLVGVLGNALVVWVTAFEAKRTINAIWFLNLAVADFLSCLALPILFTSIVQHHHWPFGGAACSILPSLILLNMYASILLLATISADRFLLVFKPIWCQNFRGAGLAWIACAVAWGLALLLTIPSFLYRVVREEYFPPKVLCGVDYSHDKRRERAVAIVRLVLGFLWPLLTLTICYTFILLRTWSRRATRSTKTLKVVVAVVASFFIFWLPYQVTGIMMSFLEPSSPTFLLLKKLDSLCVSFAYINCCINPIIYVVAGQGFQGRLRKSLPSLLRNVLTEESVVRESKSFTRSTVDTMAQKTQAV
Assay: Anaphylatoxin (C5a) receptor binding Ki determination, 125I-C5a on PMNL membrane fragments
Settings: read-out: Ki (In vitro C5a Receptor Binding Potency)
Experimental: The membrane-bound radiolabeled C5a was separated from the free radiolabeled C5a by filtration, and the recovered gamma radioactivity was measured. […] Free and membrane-bound ligand were separated by filtration.

N=C(N)NCCC[C@H](NC(=O)C(CCCc1ccccc1)NC(=O)c1cccc(CNC(=O)[C@H](CC2CCCCC2)NC(=O)[C@@H]2CCCN2C(=O)CCCCCN)c1)C(=O)O (stereo partly drawn) [Example 109, N-(6-Aminohexanoyl)-Prolyl-{(2S)-2-Amino-3-cyclohexylpropanoyl}-(3-Aminomethylbenzoyl)-{(+)-2-Amino-5-phenylpentanoyl}-Arginyl-OH] (H-[Ahx]P[Cha][3Amb][ξhhPhe]R-OH)
Ki: 4.8 µM

CC(C)C[C@H](NC(=O)[C@H](CC1CCCCC1)NC(=O)CCCCCN)C(=O)NC(CCCc1ccccc1)C(=O)N[C@@H](CCCNC(=N)N)C(=O)O (single isomer, unassigned) [Example 86, N-(6-Aminohexanoyl)-{(25)-2-Amino-3-cyclohexylpropanoyl}-Leucyl-{(R/S)-2-Amino-5-phenylpentanoyl}-Arginyl-OH]
Ki: 44.8 µM

CC(C)C[C@H](NC(=O)CNC(=O)[C@H](CC1CCCCC1)NC(=O)CCCCCN)C(=O)NC(CCCc1ccccc1)C(=O)N[C@@H](CCCNC(=N)N)C(=O)O (single isomer, unassigned) [Example 70]
Ki: 4.5 µM

CC(C)C[C@@H](C(=O)NC(CCCc1ccccc1)C(=O)N[C@@H](CCCNC(=N)N)C(=O)O)N(C)C(=O)CNC(=O)[C@H](CC1CCCCC1)NC(=O)CCCCCCN (mixture of isomers) [Example 27, N-(7-Aminoheptanoyl)-{(2S)-2-Amino-3-cyclohexylpropanoyl}-Glycyl-Leucyl(N-methyl)-{(R/S)-2-Amino-5-phenylpentanoyl}-Arginyl-OH]
Ki: 0.45 µM

CC(C)C[C@H](NC(=O)CNC(=O)[C@H](CC1CCCCC1)NC(=O)NCc1cccc(CN)c1)C(=O)NC(CCCc1ccccc1)C(=O)N[C@@H](CCCNC(=N)N)C(=O)O (single isomer, unassigned) [Example 141]
Ki: 16 µM

CC(C)C[C@H](NC(=O)CNCCc1c[nH]c2ccccc12)C(=O)N[C@H](CCCc1ccccc1)C(=O)N[C@@H](CCCNC(=N)N)C(=O)O [Example 79, N-[(Indol-3-yl)ethyl]-Glycyl-Leucyl-{(R)-2-Amino-5-phenylpentanoyl}-Arginyl-OH] (H-[Gly(N(CH2)2(3-indolyl))]L[d(hhPhe)]R-OH)
Ki: 0.39 µM

CC(C)C[C@@H](NC(=O)CNC(=O)[C@H](CC1CCCCC1)NC(=O)CCCCCN)C(=O)NC(CCCc1ccccc1)C(=O)N[C@@H](CCCNC(=N)N)C(=O)O (single isomer, unassigned) [Example 99]
Ki: 4.8 µM

CC(C)C[C@H](NC(=O)CNC(=O)C=C1CNc2ccccc21)C(=O)N[C@H](CCCc1ccccc1)C(=O)N[C@@H](CCCNC(=N)N)C(=O)O (single isomer, unassigned) [Example 65]
Ki: 0.3 µM

CC(C)C[C@H](NC(=O)CNC(=O)[C@H](CC1CCCCC1)NC(=O)CCCCCN)C(=O)NC(CCCc1ccccc1)C(=O)N[C@@H](CCCNC(=N)N)C(=O)O (single isomer, unassigned) [Example 71]
Ki: 0.15 µM

CC(C)C[C@H](NC(=O)CNC(=O)[C@H](CC1CCCCC1)NC(=O)Cc1ccccc1)C(=O)N[C@H](CCCc1ccccc1)C(=O)N[C@@H](CCCNC(=N)N)C(=O)O [Example 47, N-Phenylacetyl-{(2S)-2-Amino-3-cyclohexylpropanoyl}-Glycyl-Leucyl-{(R)-2-Amino-5-phenylpentanoyl}-Arginyl-OH] (PhAc-[Cha]GL[d(hhPhe)]R-OH)
Ki: 1.1 µM

CC(C)C[C@H](NC(=O)CN(C)C(=O)[C@H](CC1CCCCC1)NC(=O)CCCCCCN)C(=O)NC(CCCc1ccccc1)C(=O)N[C@@H](CCCNC(=N)N)C(=O)O (single isomer, unassigned) [Example 61]
Ki: 3.2 µM

CC(C)C[C@H](NC(=O)[C@H](C)NC(=O)[C@H](CC1CCCCC1)NC(=O)CNC(=O)CCCCCN)C(=O)NC(CCCc1ccccc1)C(=O)N[C@@H](CCCNC(=N)N)C(=O)O (single isomer, unassigned) [Example 32]
Ki: 10 µM

CN[C@@H](Cc1ccccc1)C(=O)N[C@@H](CCCCN)C(=O)N1CCC[C@H]1C(=O)N[C@@H](CC1CCCCC1)C(=O)N[C@@H](C)C(=O)N[C@@H](CC(C)C)C(=O)NC(CCCc1ccccc1)C(=O)N[C@@H](CCCNC(=N)N)C(=O)O (single isomer, unassigned) [Example 129]
Ki: 0.017 µM

CC(C)C[C@H](NC(=O)[C@@H](C)NC(=O)[C@H](CC1CCCCC1)NC(=O)CCCCCN)C(=O)NC(CCCc1ccccc1)C(=O)N[C@@H](CCCNC(=N)N)C(=O)O (single isomer, unassigned) [Example 127]
Ki: 23.3 µM

CC(C)C[C@H](NC(=O)[C@H](C)NC(=O)[C@H](CC1CCCCC1)NC(=O)[C@@H]1CCCN1C(=O)[C@@H](N)CCCCN)C(=O)NC(CCCc1ccccc1)C(=O)N[C@@H](CCCNC(=N)N)C(=O)O (single isomer, unassigned) [Example 68]
Ki: 14 µM

CC(C)C[C@H](NC(=O)CNC(=O)[C@H](CC1CCCCC1)NC(=O)CCCCCCN)C(=O)NC(CCOc1ccccc1)C(=O)N[C@@H](CCCNC(=N)N)C(=O)O (some centres unmarked) [Example 48] (H-[Ahp][Cha]GL[X2]R-OH)
Ki: 0.23 µM

CN[C@@H](Cc1ccccc1)C(=O)N[C@@H](CCCCN)C(=O)N1CCC[C@H]1C(=O)N[C@@H](CC1CCCCC1)C(=O)N[C@@H](C)C(=O)N[C@@H](CC(C)C)C(=O)NC(CCCc1ccccc1)C(=O)N[C@@H](CCCNC(=N)N)C(=O)O (single isomer, unassigned) [Example 128]
Ki: 0.027 µM

CC(C)C[C@H](NC(=O)[C@@H](C)NC(=O)[C@H](CC1CCCCC1)NC(=O)CCCCCN)C(=O)NC(CCCc1ccccc1)C(=O)N[C@@H](CCCNC(=N)N)C(=O)O (single isomer, unassigned) [Example 126]
Ki: 13.4 µM

CC(C)C[C@H](NC(=O)CNC(=O)[C@H](CCC1CCCCC1)NC(=O)CCCCCN)C(=O)NC(CCCc1ccccc1)C(=O)N[C@@H](CCCNC(=N)N)C(=O)O (single isomer, unassigned) [Example 137]
Ki: 4.2 µM

CC(C)C[C@H](NC(=O)CNC(=O)Cc1c[nH]c2ccccc12)C(=O)N[C@H](CCCc1ccccc1)C(=O)N[C@@H](CCCNC(=N)N)C(=O)O [Example 50, N-(Indole-3-acetyl)-Glycyl-Leucyl-{(R)-2-Amino-5-phenylpentanoyl}-Arginyl-O] (X10-GL[d(hhPhe)]R-OH)
Ki: 0.19 µM

CC(C)C[C@H](NC(=O)CNC(=O)[C@H](CC1CCCCC1)NCc1ccccc1)C(=O)N[C@H](CCCc1ccccc1)C(=O)N[C@@H](CCCNC(=N)N)C(=O)O [Example 63, H-{(2S)-2-Amino-3-cyclohexylpropanoyl}(N-Benzyl)-Glycyl-Leucyl-{(R)-2-Amino-5-phenylpentanoyl}-Arginyl-OH] (H-[X5]GL[d(hhPhe)]R-OH)
Ki: 0.4 µM

CC(C)C[C@H](NC(=O)[C@H](CCCCN)NC(=O)[C@@H](N)CC1CCCCC1)C(=O)NC(CCCc1ccccc1)C(=O)N[C@@H](CCCNC(=N)N)C(=O)O (single isomer, unassigned) [Example 97]
Ki: 8.2 µM

CC(C)C[C@H](NC(=O)CNC(=O)[C@H](CC1CCCCC1)NC(=O)NCc1ccc(CN)cc1)C(=O)NC(CCCc1ccccc1)C(=O)N[C@@H](CCCNC(=N)N)C(=O)O (mixture of isomers) [Example 145, N-[N-(4-Aminomethylbenzyl)aminocarbonyl]-{(2S)-2-Amino-3-cyclohexylpropanoyl}-Glycyl-Leucyl-{(R/S)-2-Amino-5-phenylpentanoyl}-Arginyl-OH]
Ki: 7 µM
